Laboratory results published in ChEMBL document CHEMBL3879912, “4-alkoxy/aralkoxy-5-substituted-pyrrolopyrimidine compounds as TAK1 inhibitors in disease treatment” (2014).

Each molecule was assayed against TAK1/TAB1 (Homo sapiens, UniProt O43318) (assay: Inhibition of kinase tracer-236 binding to full length recombinant human His-tagged TAK1-TAB1 expressed in baculovirus by FRET assay).
TAK1/TAB1, sequence (Q15750 whole entry): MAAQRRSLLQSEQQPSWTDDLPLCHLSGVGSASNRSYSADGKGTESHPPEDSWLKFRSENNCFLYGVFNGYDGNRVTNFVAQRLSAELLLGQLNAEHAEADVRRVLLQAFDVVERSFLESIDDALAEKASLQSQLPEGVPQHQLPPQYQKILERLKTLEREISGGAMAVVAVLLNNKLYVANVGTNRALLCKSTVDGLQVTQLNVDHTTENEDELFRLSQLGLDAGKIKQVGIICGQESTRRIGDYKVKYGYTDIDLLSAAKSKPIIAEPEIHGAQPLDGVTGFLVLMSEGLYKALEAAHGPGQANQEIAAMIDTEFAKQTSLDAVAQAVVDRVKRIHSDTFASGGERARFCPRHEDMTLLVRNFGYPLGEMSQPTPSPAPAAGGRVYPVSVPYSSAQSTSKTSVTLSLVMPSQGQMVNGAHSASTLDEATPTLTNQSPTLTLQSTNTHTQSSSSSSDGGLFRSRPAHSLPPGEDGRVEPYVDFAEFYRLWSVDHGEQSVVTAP
TAK1/TAB1, sequence (O43318 whole entry): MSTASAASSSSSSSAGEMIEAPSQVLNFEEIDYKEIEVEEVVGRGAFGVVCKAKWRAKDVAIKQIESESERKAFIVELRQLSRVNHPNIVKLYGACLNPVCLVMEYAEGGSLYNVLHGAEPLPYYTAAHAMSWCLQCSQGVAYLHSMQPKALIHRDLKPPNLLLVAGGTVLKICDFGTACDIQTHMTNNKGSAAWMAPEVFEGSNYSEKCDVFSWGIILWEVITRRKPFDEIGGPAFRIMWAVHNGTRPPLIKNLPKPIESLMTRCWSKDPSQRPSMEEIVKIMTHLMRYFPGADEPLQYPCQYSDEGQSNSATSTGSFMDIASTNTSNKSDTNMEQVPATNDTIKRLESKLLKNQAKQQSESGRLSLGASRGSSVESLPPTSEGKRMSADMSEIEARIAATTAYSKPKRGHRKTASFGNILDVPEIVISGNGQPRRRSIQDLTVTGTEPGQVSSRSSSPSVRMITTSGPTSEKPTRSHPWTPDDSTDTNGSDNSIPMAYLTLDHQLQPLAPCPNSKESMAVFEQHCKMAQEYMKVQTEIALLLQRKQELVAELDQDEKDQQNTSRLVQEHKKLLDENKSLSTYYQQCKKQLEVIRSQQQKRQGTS

IC50	Compound
1700 nM	CC(=O)c1c[nH]c2ncnc(OCC(C)C)c12
51 nM	NC(=O)/C=C/c1c[nH]c2ncnc(OCc3cccc(F)c3)c12
430 nM	COC(=O)/C(C)=C/c1c[nH]c2ncnc(OCC(C)C)c12
330 nM	N#C/C=C/c1c[nH]c2ncnc(OCc3ccccc3)c12
7 nM	CC(C)COc1ncnc2[nH]cc(C#CC(N)=O)c12
